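The compound was tested at five concentrations on cells cultured in 96-well plates, with a 48-hour exposure period. Abbreviation: GI50, concentration required for 50% inhibition of growth. TGI: concentration producing complete growth inhibition.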
Tests used:
Assay in all cases: NCI-60 cell line screen, 48 h
786-0 renal = tested on: 786-0 renal
RPMI-8226 leukemia = tested on: RPMI-8226 leukemia
KM12 colon = tested on: KM12 colon
CCRF-CEM leukemia = tested on: CCRF-CEM leukemia
OVCAR-8 ovarian = tested on: OVCAR-8 ovarian
SNB-19 CNS = tested on: SNB-19 CNS
A498 renal = tested on: A498 renal
MALME-3M melanoma = tested on: MALME-3M melanoma
SF-295 CNS = tested on: SF-295 CNS
NCI-H23 lung = tested on: NCI-H23 lung

Row | Compound | TGI (786-0 renal) [µM] | TGI (RPMI-8226 leukemia) [µM] | TGI (KM12 colon) [µM] | TGI (CCRF-CEM leukemia) [µM] | TGI (OVCAR-8 ovarian) [µM] | TGI (SNB-19 CNS) [µM] | TGI (A498 renal) [µM] | TGI (MALME-3M melanoma) [µM] | TGI (SF-295 CNS) [µM] | TGI (NCI-H23 lung) [µM] | GI50 (786-0 renal) [µM] | GI50 (RPMI-8226 leukemia) [µM] | GI50 (KM12 colon) [µM] | GI50 (CCRF-CEM leukemia) [µM] | GI50 (OVCAR-8 ovarian) [µM] | GI50 (SNB-19 CNS) [µM] | GI50 (A498 renal) [µM] | GI50 (MALME-3M melanoma) [µM] | GI50 (SF-295 CNS) [µM] | GI50 (NCI-H23 lung) [µM]
1 | COC(=O)C1Cc2c(n(C)c3ccccc23)C(c2ccccc2)N1 (centres undefined) | > 100 | > 100 | > 100 | > 100 | > 100 | > 100 | > 100 | > 100 | > 100 | > 100 | – | – | – | – | – | – | – | – | – | –
2 | C=CC[P@@]1(=O)O[C@H](c2ccccc2)C(C)N1C(C)C (some centres undefined) | > 100 | > 100 | > 100 | > 100 | > 100 | > 100 | > 100 | > 100 | > 100 | > 100 | – | – | – | – | – | – | – | – | – | –
3 | COc1c(O)cc2oc3cc(O)c(CC=C(C)C)c(O)c3c(=O)c2c1C/C=C(\C)CCC=C(C)C | 11.6 | 31.3 | 9.91 | 32.5 | 10.6 | 12 | 10.5 | 12 | 9.6 | 14.8 | 6.36 | 10.6 | 5.47 | 11.7 | 5.45 | 6.51 | 5.96 | 6.34 | 4.88 | 6.6
4 | COc1cc(-c2cc(C(=O)Nc3nc4ccccc4s3)nc3cc(-c4ccccc4)nn23)cc(OC)c1OC | 12.8 | > 100 | > 100 | > 100 | > 100 | 69.5 | 36.7 | 56.2 | 32.7 | > 100 | 2.59 | > 100 | 22.6 | 54.1 | 5.37 | 16.7 | 9.29 | 12.4 | 10.6 | 11.5
5 | CS(=O)(=O)c1ccc(Oc2nccc(-c3c(-c4ccc(F)cc4)ncn3C3CCNCC3)n2)cc1 | > 25 | > 25 | > 25 | – | > 25 | > 25 | > 25 | > 25 | > 25 | – | > 25 | > 25 | > 25 | – | > 25 | > 25 | > 25 | > 25 | > 25 | –
6 | O=[N+]([O-])c1ccc(OCCNc2cccc3ccccc23)cc1 | > 100 | > 100 | > 100 | > 100 | > 100 | > 100 | > 100 | > 100 | > 100 | > 100 | – | – | – | – | – | – | – | – | – | –
7 | O=C1C(c2ccc(Cl)cc2)=[N+]([O-])c2ccccc21 | 30.7 | > 100 | 29.7 | 25.5 | 25 | 53.8 | 86.9 | 31.8 | 42.2 | 31.2 | – | – | – | – | – | – | – | – | – | –
8 | COC(=O)C/C(C)=C/[C@@H](O)[C@H]1O[C@@H]2CC/C(Cl)=C/C/C=C(/C)[C@H](OC(C)=O)CC(=O)O[C@@H]1C2 | 2.53 | 7.24 | 9.63 | – | > 25 | 12.7 | – | – | – | 7.74 | 0.708 | 1.44 | 2.64 | – | 4.73 | 2.28 | – | – | – | 1.14
9 | N#Cc1c2ccccc2c2nnc3cc(C(F)(F)F)ccc3n12 | > 100 | > 100 | > 100 | – | > 100 | > 100 | – | > 100 | > 100 | – | > 100 | 55.1 | > 100 | – | 68.6 | > 100 | – | > 100 | 96.3 | –
10 | N#C[C@]12CC3(CC[C@H]1CC1(C2)OCCO1)OCCO3 | > 100 | > 100 | > 100 | > 100 | > 100 | > 100 | > 100 | > 100 | – | – | – | – | – | – | – | – | – | – | – | –
11 | Cc1cc(N(CCC#N)CCC#N)ccc1N=Nc1ccccc1[N+](=O)[O-] | > 100 | – | > 100 | > 100 | > 100 | – | > 100 | > 100 | > 100 | > 100 | – | – | – | – | – | – | – | – | – | –
12 | Cc1ccc(C)c(NC(=O)CC2C(=O)Nc3ccccc3S2(=O)=O)c1 (centres undefined) | 56.5 | > 100 | – | > 100 | > 100 | > 100 | > 100 | 96.2 | > 100 | > 100 | – | – | – | – | – | – | – | – | – | –
13 | CC(=O)CC(=O)CCCC(=O)Nc1ccc(Cl)cc1Cl | > 100 | > 100 | > 100 | – | > 100 | > 100 | – | > 100 | > 100 | > 100 | – | – | – | – | – | – | – | – | – | –
14 | NCCCn1c2c(c3ccccc3c1=O)C(=O)c1cc3c(cc1-2)OCO3 | 3.1 | 0.258 | 2.82 | 0.187 | – | 1.62 | – | 6.64 | 1.74 | 1.38 | 0.241 | < 0.0214 | 0.311 | 0.0271 | 0.173 | 0.159 | – | 1.48 | 0.297 | 0.324
15 | COC(=O)c1ccc(-c2nc3cc(F)c(F)cc3nc2C#N)cc1 | 50 | – | 50 | 18.7 | 13 | 17 | 23.9 | 16.5 | 15.5 | 17 | 26.4 | – | 31.4 | 2.27 | 4.65 | 9.35 | 14.4 | 7.64 | 7.26 | 9.12
16 | COc1ccc(/C=C\c2cc(OC)c(OC)c(OC)c2)cc1NC(=O)[C@@H](N)CO | > 40.3 | 20.8 | > 100 | > 100 | > 100 | > 100 | < 0.0158 | – | > 100 | > 100 | 0.0188 | 0.0276 | < 0.0129 | 0.0263 | 0.0328 | 0.0433 | < 0.01 | – | < 0.01 | 0.033
17 | CCOC(=O)c1sc2ncn(Cc3cccc(Cl)c3)c(=O)c2c1C | 25.7 | 18.4 | 37.9 | – | 28.4 | 29.8 | 30.7 | – | 24.4 | 27.9 | 13.1 | 5.58 | 13.7 | – | 15.1 | 16.3 | 15.9 | – | 12 | 14.7

From PubChem BioAssay (NCI)
